For 1 molecule, IC50 results are on record in patent publication US7659293B2, “α-Amino-N-hydroxy-acetamide derivatives” (Novartis AG, priority 2001, dated 2010).

The assay has as its target T1, MT1-MMP (Homo sapiens, UniProt P50281).
T1 construct: initiator Met (ATG start codon from NdeI site) (N); made in house
In words: MT1-MMP fluorogenic substrate inhibition assay. The format is biochemical. The settings on record: mean ± SEM of three independent experiments. The method, then:
The inhibitory activities of compounds of formula I on MT1-MMP, MMP1 (collagenase 1) and MMP2 (gelatinase A) can be determined as follows:
Stock solutions of substrate (MCA-Pro-Leu-Gly-Leu-Dpa-Ala-Arg-NH2 (SEQ ID NO: 1), C. G. Knight, et al, FEBS lett., 296, 263-266, (1992)), are prepared in 100% DMSO at a concentration 1.0 mM.
Stock solutions of inhibitors are prepared in 100% DMSO. The inhibitor is diluted into the assays from a solution in 100% DMSO, and controls substitute an equal volume of DMSO so that the final DMSO concentration from inhibitor and substrate dilutions in all assays is 6.0%. Assays are performed in assay buffer (150 mM NaCl, 10 mM CaCl2, 50 mM Tris-Cl pH7.5, 0.05% Brij-35) containing 6.0% DMSO once the substrate and inhibitor are diluted into it. […] The fluorescence changes are monitored using an excitation wavelength of 320 nm and an emission wavelength of 340 nm. […] The reaction mixture is preincubated with the inhibitor for 30 min, the reaction is started by the addition of MMP enzyme and the fluorescence intensity is measured for 10 min. […]
Expression and Purification: The subcloned CD-MT1-MMP is used to transfect E. coli strain BL21[DE3] (Hanahan, D. J. Mol. Biol. 1983; 166(4):557-80) and expressed as insoluble inclusion body materials. […] Fractions of 1 ml are collected and […] aliquots are analyzed by immunoblotting. […]

Each structure is given as a SMILES string. Structures can show the parent of a compound that is named as a salt.

On to `CN(C)c1ccc(CN(CC(=O)NO)S(=O)(=O)c2ccc(OCC3CC3)cc2)cc1` [Example 2, 2-[(4-Cyclopropylmethoxy-benzenesulfonyl)-(4-dimethylamino-benzyl-amino]-N-hydroxy-acetamide HCl salt], for which the half-maximal inhibitory concentration (IC50) was 4.67 ± 0.17 nM.

Broadly, the IC50 is the concentration that gives 50% inhibition. A higher IC50 goes with a need for much substance.
